# Experimental data published in PMC4915350 (Journal of Medicinal Chemistry, 2016).
# Legend:
# [1] = target: D3R; conditions: read-out: Ki at D3R, previously reported; using [3H]spiperone; cited from earlier work
# [2] = test system: D3R; conditions: concentrations up to 1 μM, data not shown; ref 22 (McCall et al. 2005); cited from earlier work
# [3] = target: hD2R (Homo sapiens, UniProt P14416); assay: biochemical; type: binding
# [4] = target: hD3R (Homo sapiens, UniProt P35462); assay: biochemical; type: binding
# Sequence of hD3R (P35462 whole entry): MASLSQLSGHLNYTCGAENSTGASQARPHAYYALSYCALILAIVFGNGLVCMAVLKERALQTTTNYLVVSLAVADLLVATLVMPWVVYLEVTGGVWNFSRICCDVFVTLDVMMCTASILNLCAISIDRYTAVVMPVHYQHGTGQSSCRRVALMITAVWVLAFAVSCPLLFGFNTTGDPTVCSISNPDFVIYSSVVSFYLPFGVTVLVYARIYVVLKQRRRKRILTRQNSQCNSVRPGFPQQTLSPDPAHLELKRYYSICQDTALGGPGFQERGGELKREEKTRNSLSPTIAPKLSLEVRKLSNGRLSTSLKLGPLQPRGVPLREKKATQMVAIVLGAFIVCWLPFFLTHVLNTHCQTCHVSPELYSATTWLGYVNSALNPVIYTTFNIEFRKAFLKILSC
# Sequence of hD2R (P14416 whole entry): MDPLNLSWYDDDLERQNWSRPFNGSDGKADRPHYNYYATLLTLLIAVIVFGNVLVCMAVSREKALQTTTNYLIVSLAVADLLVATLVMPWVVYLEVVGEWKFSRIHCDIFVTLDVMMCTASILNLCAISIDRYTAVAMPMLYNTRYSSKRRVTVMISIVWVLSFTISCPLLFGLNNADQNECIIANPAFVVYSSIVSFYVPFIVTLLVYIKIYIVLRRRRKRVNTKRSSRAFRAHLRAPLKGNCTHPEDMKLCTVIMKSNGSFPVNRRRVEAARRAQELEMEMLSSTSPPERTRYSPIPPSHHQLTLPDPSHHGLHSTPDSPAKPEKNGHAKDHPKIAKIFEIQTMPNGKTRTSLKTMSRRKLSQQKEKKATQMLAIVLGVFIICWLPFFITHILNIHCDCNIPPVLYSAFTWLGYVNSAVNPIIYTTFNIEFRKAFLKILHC
compound,measurement,setting,value
"CN[C@@H]1Cc2cccc3[nH]c(=O)n(c23)C1 [Compound 1, (R)-5,6-dihydro-5-(methylamino)-4H-imidazo[4,5,1-ij]quinolin-2(1H)-one (Z)-2-butenedioate]",Ki,[1],1940 nM
same,"activity in D3R-mediated mitogenesis assay, previously reported",[2],no activity was observed
"N[C@@H]1Cc2cccc3[nH]c(=O)n(c23)C1 [Compound 12a, (R)-5-Amino-5,6-dihydro-4H-imidazo[4,5,1-ij]quinolin-2(1H)-one]",fold reduction of D2R affinity relative to 1,[3],~6 fold
same,fold reduction of D3R affinity relative to 1,[4]; [3H]7-OH-DPAT as tracer,~6 fold
"CCCN(CCC)[C@@H]1Cc2cccc3nc(O)n(c23)C1 [Compound 14a, (R)-5-(Dipropylamino)-5,6-dihydro-4H-imidazo[4,5,1-ij]quinolin-2(1H)-one]",fold decrease of D2R affinity relative to 13,[3],~4 fold
"CCCN(C)[C@@H]1Cc2cccc3[nH]c(=O)n(c23)C1 [Compound 14c, (R)-5-[Methyl(propyl)amino]-5,6-dihydro-4H-imidazo[4,5,1-ij]quinolin-2(1H)-one]",D2R selectivity over D3R (D3R/D2R),[3],~8 fold
"CCCN(CCC)[C@@H]1Cc2cccc3c2n(c(=O)n3CCC)C1 [Compound 15, (R)-5-(Dipropylamino)-1-propyl-5,6-dihydro-4H-imidazo[4,5,1-ij]quinolin-2(1H)-one]",Ki,[3],~3 nM
same,Ki,[4],~3 nM
